The structures appear in SMILES notation.

The experiment can be described thus: [3H]-AEA Cellular Uptake: Screening for AEA cellular uptake inhibition was performed in a semi-automated procedure: Pipetting and washing steps were performed by a Biomek3000 laboratory workstation. First, required amounts of U937 cells were centrifuged at 100×g for 5 min and resuspended in RPMI (37° C.) to a final concentration of 2×10^6 cells/mL. Then, 250 μL of cell suspension (0.5×10^6 cells per sample) were transferred into AquaSil™ silanized glass vials (Chromacol 1.1-MTV) in 96-well format. After addition of 5 μL vehicle (DMSO) or compounds the cells were incubated at 37° C. for 15 min. As positive controls OMDM-2 and UCM707 were used at 10 μM in each run. The ETI-T compounds were measured at up to 7 concentrations in triplicates from 100 pM-100 μM. After pre-incubation, a mixture of 0.5 nM[ethanolamine-1-3H]-AEA, (60 Ci/mmol) and 99.5 nM of cold AEA (final 100 nM) was added and samples were incubated at 37° C. for another 15 min. The reaction was stopped by rapid filtration over UniFilter-96 GF/C filters (PerkinElmer) pre-soaked with PBS 0.25% BSA. Cells were washed three times with 100 μL ice-cold PBS buffer containing 1% fatty acid free BSA. After drying, 45 μL MicroScint 20 scintillation cocktail (PerkinElmer, Waltham, Mass., US) was added to the wells and the plate was sealed. Radioactivity was measured by liquid scintillation counting on a PerkinElmer Wallac Trilux MicroBeta 1450 during 2 min. Non-specific binding of [3H]AEA (100 nM) to the glass vials was never higher than 10%. IC50 values were calculated by GraphPad® by non-linear regression using the built-in log(inhibitor) vs. response-variable slope (four parameters) function. Conditions: U-937.
Turning to `CC/N=C1\S/C(=C\c2ccc(O)c(OCC)c2)C(=O)N1CC`, the IC50 (in general, the midpoint of a concentration-inhibition curve) was 0.145 µM.
Consider `O=C1/C(=C/c2ccc(O)cc2)S/C(=N\c2ccccc2)N1OC1=CC=CC1`, for which the IC50 is 0.434 µM.
In the case of `CCCN1C(=O)/C(=C\c2ccc(C(C)C)cc2)S/C1=N\c1ccccc1`, the IC50 is 0.355 µM.

These data come from ChEMBL document CHEMBL5726990, “Thiazolidinones as cellular anandamide uptake inhibitors and their use in the treatment of psychiatric or neurological disorders and inflammation, in particular neuroinflammation” (2019).
